Reference: paper PMC10917278, “Structural insights into the modulation Of SOD1 aggregation By a fungal metabolite Phialomustin-B: Therapeutic potential in ALS” (PLOS ONE, 2024)
Entries after “also recorded” stand apart in the source; their conditions may differ.

Columns and labels:
SOD1^G10P = biological target: T1, SOD1^G10P (Homo sapiens, UniProt P00441, G11P); experiment: MST binding assay, site-specific mutant SOD1^G10P; conditions: PBS buffer, mutant 25 nM, PB 30.5 nM to 250 μM, 25 °C, SEM n = 3, read-out: binding affinity Kd
T1 construct: His-tag (cleaved yes); made in house; host or cells: E. coli BL21-DE3
Protocol: (§1) To further validate the binding of PB to SOD1, site-directed mutagenesis was performed for the interacting residues at the binding sites of PB. The point mutations generated on the SOD1 protein are K9F, G10P, L42R, and A123F. The MST assay was carried out on these mutants against PB (Fig 5). The dose-response curve with the highest signal-to-noise ratio, high response amplitude, and lowest error rate was selected for measuring the binding affinity (Kd) value. […] Binding at the electrostatic loop is affected majorly by mutating residues at A123 to phenylalanine and L42 to arginine. […] Taken together, the binding affinities of these mutants confirm the ligand bindings at these sites of SOD1 are specific.
(§2) Fig 5 MST interaction analysis of fluorescently labeled SOD1 mutants against PB. The binding of PB to fluorescently Cys-labeled SOD1- variants is quantified in PBS buffer. The concentration of PB varied from 30.5 nM to 250 μM, while the respective mutants were kept constant at 25 nM. MST experiments were conducted at 20% LED excitation and medium MST power at 25 °C. […] Error bars indicate the standard error of the mean, SEM (n = 3). […] The ligand PB is printed only in the titles of panels a-d, so the mutant names are used as the substance labels.
(§3) Binding studies were performed for SOD1^WT and the ligands using microscale thermophoresis (MST). […]

SOD1^A123F = biological target: T2, SOD1^A123F (Homo sapiens, UniProt P00441, A124F); experiment: MST binding assay, site-specific mutant SOD1^A123F; conditions: PBS buffer, mutant 25 nM, PB 30.5 nM to 250 μM, 25 °C
T2 construct: His-tag (cleaved yes); made in house; host or cells: E. coli BL21-DE3
Protocol: as §1, §2, §3

SOD1^K9F = biological target: T3, SOD1^K9F (Homo sapiens, UniProt P00441, K10F); experiment: MST binding assay, site-specific mutant SOD1^K9F; conditions: PBS buffer, mutant 25 nM, PB 30.5 nM to 250 μM, 25 °C
T3 construct: His-tag (cleaved yes); made in house; host or cells: E. coli BL21-DE3
Protocol: as §1, §2, §3

T2 sequence (P00441 whole entry A124F): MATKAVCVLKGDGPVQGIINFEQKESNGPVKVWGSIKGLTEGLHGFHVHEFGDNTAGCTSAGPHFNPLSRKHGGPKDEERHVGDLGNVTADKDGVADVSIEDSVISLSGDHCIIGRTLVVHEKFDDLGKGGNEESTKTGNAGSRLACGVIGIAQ
T3 sequence (P00441 whole entry K10F): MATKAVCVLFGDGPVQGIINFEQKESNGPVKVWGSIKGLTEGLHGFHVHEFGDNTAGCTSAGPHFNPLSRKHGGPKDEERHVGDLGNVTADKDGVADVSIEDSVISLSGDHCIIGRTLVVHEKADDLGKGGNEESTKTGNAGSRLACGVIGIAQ
T1 sequence (P00441 whole entry G11P): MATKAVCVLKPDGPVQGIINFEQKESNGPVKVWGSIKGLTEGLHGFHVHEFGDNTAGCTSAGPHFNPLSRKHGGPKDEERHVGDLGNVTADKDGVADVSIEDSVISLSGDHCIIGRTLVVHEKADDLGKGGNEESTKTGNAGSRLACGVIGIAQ

In the case of CCCC[C@H](C)/C=C(C)/C=C/C(=O)O [PB, (S, 2E, 4E)-4,6-dimethyldeca-2,4-dienoic acid], the Kd (SOD1^G10P) is reported as 15.9 ± 2.65 µM, the “binding affinity Kd” value (SOD1^A123F) is reported as “very weak binding; also recorded: weak-binding” and the “binding affinity Kd” value (SOD1^K9F) is reported as “no binding”.
